# Measured values reported in PMC7617869, “Molecular glues that inhibit deubiquitylase activity and inflammatory signaling” (Nature Structural & Molecular Biology, 2025).
# Where “and” joins values, the source holds several entries; their conditions need not be identical. Equal entries are not always repeated.
# What was measured:
# ARISC = biological target: T1, ARISC (Homo sapiens, UniProt P46736+Q6UWZ7+Q9NXR7); experiment: ARISC IQF DUB activity assay; format: biochemical; details: Fig. 1g, ARISC
# T1 construct: full-length BRISC (FL), ARISC (FL); made in house; host or cells: Spodoptera frugiperda (Sf9) insect cells, MultiBac
# Protocol: (§1) IQF assays were performed in DUB reaction buffer containing 50 mM HEPES–NaOH pH 7.0, 100 mM NaCl, 0.1 mg ml^−1 BSA, 1 mM DTT and 0.03% v/v Brij-35. […] The final concentration of BRISC WT, all BRISC mutants, HsBRISCΔLoop, MmBRISC and DrBRISCΔNΔC was 1 nM. Other enzymes were tested at the following concentrations: 5 nM ARISC (FL), 10 nM CfBRISCΔNΔC, 250 nM AMSH* (ref. [43]), 500 nM USP2 and 1 μM trypsin (Sigma, 9002-07-7). For Michaelis–Menten experiments, 1 nM BRISC with 0–1 μM IQF K63-linked diubiquitin substrate was used. Michaelis–Menten analyses and Lineweaver–Burk plots were calculated using GraphPad Prism (version 9.0).
# (§2) To assess enzymatic activity, BRISC complexes were diluted to concentrations between 1 nM and 50 nM. […] Then, 20-μl enzyme reactions were carried out in 384-well black flat-bottom low-flange plates (Corning, 35373). DUB activity was measured using IQF K63-linked diubiquitin (LifeSensors, DU6303) at 50 nM. Cleaved diubiquitin was monitored by measuring fluorescence intensity (excitation, 544 nm; emission, 575 nm; dichroic mirror, 560 nm). Fluorescence intensity was measured every minute for 30 min at 30 °C. Fluorescence intensity units were plotted against time to generate a linear reaction progress curve, where the initial velocity (V0) corresponds to the gradient of the curve (typically achieved within 15 min). IC50 values were calculated using the GraphPad Prism (version 9.0) built-in dose–response equation for inhibitor concentration versus response (variable slope).
# [1] = test system: ISG expression in MCF10A Cas9 cells expressing BRCC45 R137A; experiment: MCF10A BRCC45 R137A ISG expression (RT–qPCR); format: cell-based, human; details: hIFNα2 75 ng/ml, 2.5 μM, 4 h
# BRCC36–Abraxas 2 complex = biological target: T2, BRCC36–Abraxas 2 complex (Homo sapiens, UniProt P46736+Q15018); experiment: BRCC36–Abraxas 2 IQF DUB activity assay; format: biochemical; details: for Normalised V0: Fig. 1g, HsBRCC36-Abraxas2
# T2 construct: made in house; host or cells: Spodoptera frugiperda (Sf9) insect cells, MultiBac
# Protocol: as §1, §2
# ARISC (FL) = biological target: T3, ARISC (FL) (Homo sapiens, UniProt P46736+Q6UWZ7+Q9NXR7); experiment: In-gel deubiquitylation assay, TAMRA-labeled K63-tetraubiquitin, ARISC; format: biochemical; details: 10 μM or 100 μM inhibitor
# T3 construct: full-length BRISC (FL), ARISC (FL); made in house; host or cells: Spodoptera frugiperda Sf9 insect cells (MultiBac)
# Protocol: The inhibitor capzimin (Merck) was diluted in 1 mM DTT and incubated for 30 min at room temperature to reduce disulfide bonds required for inhibitor activity. […] DUBs were incubated with 750 nM TAMRA-labeled K63-tetraubiquitin (LifeSensors, SI6304T) for 10 min at 30 °C. Reactions were quenched by adding 2.5 μl of 4× SDS–PAGE loading dye (240 mM Tris-HCl pH 6.8, 40% v/v glycerol, 8% w/v SDS, 0.04% w/v bromophenol blue and 5% v/v β-mercaptoethanol). The samples were resolved on 4–12% NuPAGE Bis–Tris gels (Thermo Fisher Scientific). Gels were scanned using an iBright FL 1500 (Thermo Fisher Scientific) (excitation, 515–545 nm; emission, 568–617 nm; exposure, 500 ms).
# BRISC (FL) / BRISCΔNΔC = biological target: T4, BRISC (FL) / BRISCΔNΔC (Homo sapiens, UniProt P46736+Q15018+Q9NXR7); experiment: Mass photometry of BRISC dimer formation; details: for Dimer fraction: 50 nM BRISCΔNΔC
# T4 construct: BRISCΔNΔC (MERIT40ΔN, Abraxas 2ΔC); made in house; host or cells: Spodoptera frugiperda Sf9 insect cells (MultiBac)
# Protocol: Immediately before mass photometry measurement, the BRISC–inhibitor mix was diluted in 25 mM HEPES pH 7.5, 150 mM NaCl and 1 mM TCEP to 10 nM BRISC ([…]). Then, 12 μl of the diluted sample was used for the final mass photometry measurement, following autofocus stabilization. […] Next, 0.5 μl of inhibitor was mixed with 19.5 μl of 50 nM BRISCΔNΔC (2.5% v/v DMSO) and incubated at room temperature for 15 min. The BRISC–inhibitor mix was used directly for mass photometry measurement using buffer-free autofocus stabilization.
# Microscope coverslips were prepared according to an established protocol. Experiments were performed using a OneMP mass photometer (Refeyn). Videos were recorded for 60 s using AcquireMP (Refeyn) and processed using DiscoverMP (Refeyn). Mass photometry image processing was previously described. Briefly, contrast-to-mass (C2M) calibration was performed using protein standards (66–669 kDa) diluted in buffer (25 mM HEPES pH 7.5, 150 mM NaCl and 1 mM TCEP). […] The mass distribution from each run was in the form of a histogram, where the count refers to each landing event and a Gaussian sum is fitted to the data. The relative amount of each species was calculated as the area of each Gaussian, where σ refers to the s.d. of the fitted Gaussian. The dimer fraction refers to the percentage of the total counts corresponding to the 564-kDa BRISCΔNΔC dimer complex. Curves and half-maximal effective concentration values were fitted and calculated using the GraphPad Prism (version 9.0) built-in dose–response equation for concentration of agonist versus response (variable slope).
compound,measurement,setting,value
O=C(NC1C2CNCC21)c1nn(C(=O)c2c(Cl)cccc2Cl)cc1NC(=O)c1c(Cl)cccc1Cl (stereo not drawn) [FX-171-C],Normalised V0,ARISC; FX-171-C 0.02 μM,1.1225 and 0.966 and 1.021
same,Normalised V0,ARISC; FX-171-C 0.0399999 μM,1.087 and 0.9846 and 0.8911
same,Normalised V0,ARISC; FX-171-C 0.0599997 μM,1.028 and 0.9352 and 0.9674
same,Normalised V0,ARISC; FX-171-C 0.0799994 μM,1.023 and 0.9476 and 0.8942
same,Normalised V0,ARISC; FX-171-C 0.119998 μM,0.9409 and 0.9459 and 1.0338
same,Normalised V0,ARISC; FX-171-C 0.199996 μM,1.019 and 0.9437 and 0.9099
same,Normalised V0,ARISC; FX-171-C 0.799936 μM,0.9597 and 0.9609 and 1.054
same,Normalised V0,ARISC; FX-171-C 1.25984 μM,0.9789 and 0.9339 and 0.958
same,Normalised V0,ARISC; FX-171-C 1.9996 μM,1.042 and 0.9796 and 1.015
same,Normalised V0,ARISC; FX-171-C 3.159 μM,0.8585 and 0.91 and 0.9812
same,Normalised V0,ARISC; FX-171-C 5.19739 μM,0.9682 and 0.9452 and 1.064
same,Normalised V0,ARISC; FX-171-C 7.99364 μM,0.9509 and 0.8953 and 0.9841
same,Normalised V0,ARISC; FX-171-C 12.7839 μM,1.013 and 0.9875 and 0.9597
same,Normalised V0,ARISC; FX-171-C 19.96 μM,0.9552 and 0.8845 and 0.9378
same,Normalised V0,ARISC; FX-171-C 31.4999 μM,0.9912 and 0.9889 and 0.9686
same,Normalised V0,ARISC; FX-171-C 50.147 μM,0.9345 and 0.8543 and 0.967
same,Normalised V0,ARISC; FX-171-C 79.7601 μM,0.9819 and 0.9178 and 0.8968
same,Normalised V0,ARISC; FX-171-C 125.99 μM,0.9989 and 0.9716 and 0.9683
same,Normalised V0,ARISC; FX-171-C 199.922 μM,0.744 and 0.5764 and 0.798
same,"ISG expression (ISG15, IFIT1, IFIT2, IFITM1, CXCL10)",[1],a reduction in ISG expression was not observed
same,Normalised V0,BRCC36–Abraxas 2 complex; FX-171-C 0.02 μM,1.3 and 1.008 and 1.02
same,Normalised V0,BRCC36–Abraxas 2 complex; FX-171-C 0.0399999 μM,1.022 and 1.101 and 0.829
same,Normalised V0,BRCC36–Abraxas 2 complex; FX-171-C 0.0599997 μM,1.02 and 1.119 and 0.8587
same,Normalised V0,BRCC36–Abraxas 2 complex; FX-171-C 0.0799994 μM,1.3 and 1.0735 and 0.9036
same,Normalised V0,BRCC36–Abraxas 2 complex; FX-171-C 0.119998 μM,1.089 and 1.054 and 0.9805
same,Normalised V0,BRCC36–Abraxas 2 complex; FX-171-C 0.199996 μM,1.086 and 0.9378 and 0.7276
same,Normalised V0,BRCC36–Abraxas 2 complex; FX-171-C 0.499975 μM,1.276 and 0.8855 and 0.9134
same,Normalised V0,BRCC36–Abraxas 2 complex; FX-171-C 0.799936 μM,1.016 and 0.9326 and 0.9281
same,Normalised V0,BRCC36–Abraxas 2 complex; FX-171-C 1.25984 μM,1.192 and 1.006 and 0.8037
same,Normalised V0,BRCC36–Abraxas 2 complex; FX-171-C 1.9996 μM,1.057 and 0.8883 and 0.8901
same,Normalised V0,BRCC36–Abraxas 2 complex; FX-171-C 3.159 μM,1.054 and 1.032 and 0.8522
same,Normalised V0,BRCC36–Abraxas 2 complex; FX-171-C 5.19739 μM,1.053 and 0.9454 and 1.03
same,Normalised V0,BRCC36–Abraxas 2 complex; FX-171-C 7.99364 μM,1.141 and 1 and 1.012
same,Normalised V0,BRCC36–Abraxas 2 complex; FX-171-C 12.7839 μM,1.078 and 0.9313 and 0.7823
same,Normalised V0,BRCC36–Abraxas 2 complex; FX-171-C 19.96 μM,1.034 and 1.063 and 0.8934
same,Normalised V0,BRCC36–Abraxas 2 complex; FX-171-C 31.4999 μM,1.1494 and 0.9768 and 0.8462
same,Normalised V0,BRCC36–Abraxas 2 complex; FX-171-C 50.147 μM,1.218 and 1.114 and 0.9054
same,Normalised V0,BRCC36–Abraxas 2 complex; FX-171-C 79.7601 μM,1.112 and 1.275 and 1.169
same,Normalised V0,BRCC36–Abraxas 2 complex; FX-171-C 125.99 μM,1.275 and 1.029 and 0.9009
same,Normalised V0,BRCC36–Abraxas 2 complex; FX-171-C 199.922 μM,1.127 and 0.8107 and 0.6392
same,inhibition of BRCC36–Abraxas 2 complex,BRCC36–Abraxas 2 complex; minimally active complex,did not inhibit
same,inhibition of ARISC activity against tetraubiquitin,ARISC (FL),did not inhibit
same,dimer formation with increasing inhibitor concentration (mass photometry),BRISC (FL) / BRISCΔNΔC,dose-dependent increase in dimer formation
same,Dimer fraction,BRISC (FL) / BRISCΔNΔC; [Inhibitor (μM)] 2500,0.36 and 0.38 and 0.35
same,Dimer fraction,BRISC (FL) / BRISCΔNΔC; [Inhibitor (μM)] 10000,0.31 and 0.43 and 0.4
